# Target: hJAK3 kinase domain (aa781-end) (Homo sapiens (Human), UniProt P52333)
# Assay: JAK3 activity inhibition, kinase reaction (HTRF, TK substrate-biotin)
# Protocol: JAK3 activity inhibitory effects of test compounds were evaluated by the following kinase reactions.
# In the kinase reactions, fused proteins (6His tag-fused hJAK3 kinase domain (aa781-end)) which were coexpressed in Sf21 cells and purified by Ni2+/NTA agarose were used.
# A well in which ATP was not added was set out as a blank well.
# Plates were let stand at room temperature for 10 minutes from starting reactions.
# One hour after the addition of the buffer for detection, fluorescence counts of each well were measured by a fluorescence microplate reader.
# Data were obtained by deducting the average Ratio of a blank well from Ratio of each well.
# Chain of hJAK3 kinase domain (aa781-end) (P52333 781-1124 limits assumed): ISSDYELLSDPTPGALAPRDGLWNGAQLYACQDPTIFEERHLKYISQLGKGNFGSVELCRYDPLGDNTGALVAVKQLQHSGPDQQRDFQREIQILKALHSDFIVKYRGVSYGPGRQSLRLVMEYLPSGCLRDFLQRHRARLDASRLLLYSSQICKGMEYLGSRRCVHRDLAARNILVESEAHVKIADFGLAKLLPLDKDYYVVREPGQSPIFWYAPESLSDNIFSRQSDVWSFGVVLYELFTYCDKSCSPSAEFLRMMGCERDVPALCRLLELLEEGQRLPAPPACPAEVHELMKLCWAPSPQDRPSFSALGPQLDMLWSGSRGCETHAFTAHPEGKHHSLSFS
row,IC50 [nM],SMILES
1,550,c1ccc(CN2CCCC23CCN(c2ncnc4[nH]ccc24)C3)cc1 (racemic) [Compound 90]
2,110,N#CCC(=O)N1CCCCC12CCN(c1c(Cl)cnc3[nH]ncc13)C2 (racemic) [Compound 93]

row,SMILES,IC50 [nM]
1,N#CCCN1CCCC12CCN(c1ncnc3[nH]ccc13)C2 (racemic) [Compound 53],56
